The source of these data is patent US8975398B2, “NAMPT inhibitors” (AbbVie Inc., priority 2012, dated 2015).

One assay has as its system experimental autoimmune encephalomyelitis (EAE).
Assay: not given
The settings on record: model of T-cell mediated autoimmune disorders; Bruzzone, S et al. Plos One 4, e7897, 2009; cited from earlier work.
As to `O=C(/C=C/c1cccnc1)NCCCCC1CCN(C(=O)c2ccccc2)CC1` [FK866], the “manifestations of experimental autoimmune encephalomyelitis (EAE)” value is on record as “ameliorated the manifestations”.

The test system of a further assay is PC3 cells. As to the kind of experiment: NAMPT Cell Proliferation Assay (Cell Titer Glo; also performed in the presence of 0.3 mM nicotinamide mononucleotide). It is filed as cell-based. The settings on record: Homo sapiens, PC-3, 120 h, 5 days incubation, cell viability by Cell Titer Glo. In a few lines:
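PC3 cells were plated at 500 cells/well in RPMI with 10% heat-inactivated FBS, left to attach overnight, then given compounds in 10-fold dilutions from 10 μM to 1×10^−5 μM. After 5 days at 37° C and 5% CO2, viability was read by luminescence and IC50s came from sigmoidal fits of percent inhibition.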
By IC50 is commonly meant the concentration that inhibits the measured activity by half. `O=C(Nc1ccccc1F)c1ccc(NC(=O)C2CN(c3cccnn3)C2)cc1` [Example 1010, N-{4-[(2-fluorophenyl)carbamoyl]phenyl}-1-(pyridazin-3-yl)azetidine-3-carboxamide]: the IC50 is 70.9 nM.
With `CC1(NC(=O)c2ccc(NC(=O)C3CN(c4cccnn4)C3)cc2)CCC1` [Example 1011, N-{4-[(1-methylcyclobutyl)carbamoyl]phenyl}-1-(pyridazin-3-yl)azetidine-3-carboxamide], the IC50 was 113 nM.
For the compound `C=CCNC(=O)c1ccc(NC(=O)C2CN(c3cccnn3)C2)cc1` [Example 1012, N-[4-(prop-2-en-1-ylcarbamoyl)phenyl]-1-(pyridazin-3-yl)azetidine-3-carboxamide], the IC50 amounted to 782 nM.
In the case of `CC(C)(C)C(=O)N1CCC(c2ccc(C(=O)N[C@H]3CCN(c4cccnn4)C3)s2)CC1` [Example 1013, 5-[1-(2,2-dimethylpropanoyl)piperidin-4-yl]-N-[(3S)-1-(pyridazin-3-yl)pyrrolidin-3-yl]thiophene-2-carboxamide], the IC50 was 213 nM.
Take `CC(C)(C)CC(=O)N1CCC(c2ccc(C(=O)N[C@H]3CCN(c4cccnn4)C3)s2)CC1` [Example 1014, 5-[1-(3,3-dimethylbutanoyl)piperidin-4-yl]-N-[(3S)-1-(pyridazin-3-yl)pyrrolidin-3-yl]thiophene-2-carboxamide]: the IC50 was found to be 219 nM.
With `CCC(C)(C)C(=O)N1CCC(c2ccc(C(=O)N[C@H]3CCN(c4cccnn4)C3)s2)CC1` [Example 1015, 5-[1-(2,2-dimethylbutanoyl)piperidin-4-yl]-N-[(3S)-1-(pyridazin-3-yl)pyrrolidin-3-yl]thiophene-2-carboxamide], the IC50 turned out to be 90.1 nM.
For the compound `CC1(C(=O)N2CCC(c3ccc(C(=O)N[C@H]4CCN(c5cccnn5)C4)s3)CC2)CC1` [Example 1016, 5-{1-[(1-methylcyclopropyl)carbonyl]piperidin-4-yl}-N-[(3S)-1-(pyridazin-3-yl)pyrrolidin-3-yl]thiophene-2-carboxamide], the concentration for half-maximal inhibition (IC50) is 212 nM.
Same read-out and setting: to `O=C(N[C@H]1CCN(c2cccnn2)C1)c1ccc(C2CCN(C(=O)CC(F)(F)F)CC2)s1` [Example 1017, N-[(3S)-1-(pyridazin-3-yl)pyrrolidin-3-yl]-5-[1-(3,3,3-trifluoropropanoyl)piperidin-4-yl]thiophene-2-carboxamide] belongs 752 nM.
For `O=C(N[C@H]1CCN(c2cccnn2)C1)c1ccc(C2CCN(C(=O)CC3CC3)CC2)s1` [Example 1018, 5-[1-(cyclopropylacetyl)piperidin-4-yl]-N-[(3S)-1-(pyridazin-3-yl)pyrrolidin-3-yl]thiophene-2-carboxamide], the IC50 was 716 nM.
Still for that read-out and setting: with `O=C(N[C@H]1CCN(c2cccnn2)C1)c1ccc(C2CCN(C(=O)CC3CC4CCC3C4)CC2)s1` (stereo partly drawn) [Example 1019, 5-[1-(bicyclo[2.2.1]hept-2-ylacetyl)piperidin-4-yl]-N-[(3S)-1-(pyridazin-3-yl)pyrrolidin-3-yl]thiophene-2-carboxamide] the figure was 2460 nM.
For `O=C(N[C@H]1CCOC1)c1ccc(NC(=O)C2CN(c3cccnn3)C2)cc1` [Example 1020, 1-(pyridazin-3-yl)-N-{4-[(3S)-tetrahydrofuran-3-ylcarbamoyl]phenyl}azetidine-3-carboxamide], the IC50 worked out at 7270 nM.
The same measure, in the same setting: to `CN(C)CCc1ccc(NC(=O)c2ccc(NC(=O)C3CN(c4cccnn4)C3)cc2)cc1` [Example 1021, N-[4-({4-[2-(dimethylamino)ethyl]phenyl}carbamoyl)phenyl]-1-(pyridazin-3-yl)azetidine-3-carboxamide] belongs 47.7 nM; to `O=C(N[C@@H]1CCOC1)c1ccc(NC(=O)C2CN(c3cccnn3)C2)cc1` [Example 1022, 1-(pyridazin-3-yl)-N-{4-[(3R)-tetrahydrofuran-3-ylcarbamoyl]phenyl}azetidine-3-carboxamide], 8160 nM; to `COCCNC(=O)c1ccc(NC(=O)C2CN(c3cccnn3)C2)cc1` [Example 1023, N-{4-[(2-methoxyethyl)carbamoyl]phenyl}-1-(pyridazin-3-yl)azetidine-3-carboxamide], 508 nM.

A further assay relates to collagen-induced arthritis.
Assay: not given
The settings on record: Busso, N. et al. Plos One 3, e2267, 2008; cited from earlier work.
For the compound `O=C(/C=C/c1cccnc1)NCCCCC1CCN(C(=O)c2ccccc2)CC1` [FK866], the “efficacy in animal models of arthritis (collagen-induced arthritis)” value is “efficacious”.

The next assay has as its system activated T cells.
Assay: not given
The note with it: Busso, N. et al. Plos One 3, e2267, 2008; cited from earlier work.
With `O=C(/C=C/c1cccnc1)NCCCCC1CCN(C(=O)c2ccccc2)CC1` [FK866], the “apoptosis of activated T cells” value was “induce apoptosis” and the “proliferation of activated T cells” value is “selectively block proliferation”.
